Data published in patent publication US5914338A, “Heterocyclic compounds and their preparation and use” (Novo Nordisk, priority 1996, dated 1999).
Where a name gives a salt, the structure may show the parent alone. Read-outs that look alike come from different tables or passages of the source.

Key:
[1] = molecular target: muscarinic acetylcholine receptors; assay: inhibition of specific binding of ^3 H-Oxotremorine-M (^3 H-Oxo), fresh rat cortex; design: species or system rat (male Wistar); conditions: ^3 H-Oxotremorine 1.0 nM, 30 min at 25° C, pH 7.4
Source text: The pharmacological properties of the compounds of the invention can be illustrated by determining their capability to inhibit the specific binding of ^3 H-Oxotremorine-M (^3 H-Oxo). Birdsdall N. J. M., Hulme E. C., and Burgen A. S. V. (1980). "The Character of Muscarinic Receptors in Different Regions of the Rat Brain". Proc. Roy. Soc. London (Series B) 207,1.
^3 H-Oxo labels muscarinic receptor in the CNS (with a preference for agonist domains of the receptors). Three different sites are labelled by ^3 H-Oxo. […] Using the present experimental conditions only the high and medium affinity sites are determined.
The inhibitory effects of compounds on ^3 H-Oxo binding reflects the affinity for muscarinic acetylcholine receptors.
All preparations are performed at 0-4° C. unless otherwise indicated. Fresh cortex (0.1-1 g) from male Wistar rats (150-250 g) is homogenized for 5-10 s in 10 ml 20 mM Hepes pH: 7.4, with an Ultra-Turrax homogenizer. The homogenizer is rinsed with 10 ml of buffer and the combined suspension centrifuged for 15 min. at 40,000×g. The pellet is washed three times with buffer. In each step the pellet is homogenized as before in 2×10 ml of buffer and centrifuged for 10 min. at 40,000×g.
The final pellet is homogenized in 20 mM Hepes pH: 7.4 (100 ml per g of original tissue) and used for binding assay. Aliquots of 0.5 ml is added 25 μl of test solution and 25 μl of ^3 H-Oxotremorine (1.0 nM, final concentration) mixed and incubated for 30 min. at 25° C. Non-specific is determined in triplicate using arecoline (1 μg/ml, final concentration) as the test substance. After incubation samples are added 5 ml of ice-cold buffer and poured directly onto Whatman GF/C glass fiber filters under suction and immediately washed 2 times with 5 ml of ice-cold buffer. The amount of radioactivity on the filters are determined by conventional liquid scintillation counting. Specific binding is total binding minus non specific binding.
Test substances are dissolved in 10 ml water (if necessary heated on a steambath for less than 5 min.) at a concentration of 2.2 mg/ml. 25-75% inhibition of specific binding must be obtained before calculation of IC50.
The test value will be given as IC50 (the concentration (nM) of the test substance which inhibits the specific binding of ^3 H-Oxo by 50%) .
(§1) IC50 =(applied test substance concentration) x(Cx /Co
(§2) where Co is specific binding in control assays and Cx is the specific binding in the test assay. (The calculations assume normal mass-action kinetics).

[2] = molecular target: T1, subtype of muscarinic receptors (M1-site, pirenzepine sensitive site), rat cerebral cortex membranes (Rattus norvegicus, UniProt P08482); assay: inhibition of ^3 H-PRZ (pirenzepine, [N-methyl-^3 H]) binding to rat cerebral cortex membranes; design: species or system rat (male Wistar)
T1 construct: Fresh cortex (0.1-1 g) from male Wistar rats (150-200 g) is homogenized; from tissue; host or cells: fresh cerebral cortex membranes of male Wistar rats
T1 sequence (P08482 1-460): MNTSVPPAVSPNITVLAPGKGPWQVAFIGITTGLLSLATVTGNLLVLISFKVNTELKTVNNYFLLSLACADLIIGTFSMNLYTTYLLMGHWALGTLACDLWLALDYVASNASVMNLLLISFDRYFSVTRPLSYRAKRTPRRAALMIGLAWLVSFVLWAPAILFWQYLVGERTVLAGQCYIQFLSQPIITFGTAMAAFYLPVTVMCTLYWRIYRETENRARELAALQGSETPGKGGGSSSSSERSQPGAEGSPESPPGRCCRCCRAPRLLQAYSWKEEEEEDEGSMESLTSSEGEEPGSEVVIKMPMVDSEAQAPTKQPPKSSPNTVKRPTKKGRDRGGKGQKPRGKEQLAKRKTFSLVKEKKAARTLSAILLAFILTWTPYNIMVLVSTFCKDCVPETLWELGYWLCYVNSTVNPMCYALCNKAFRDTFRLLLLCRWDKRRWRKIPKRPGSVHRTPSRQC
Experimental: Furthermore, the pharmacological properties of the compounds of the invention can also be illustrated by determining their capability to inhibit ^3 H-PRZ (pirenzepine, [N-methyl-^3 H]) binding to rat cerebral cortex membranes. Pirenzepine binds selectively to subtype of muscarinic receptors. Historically the type is named the M1 -site, whereas pirenzepine sensitive site would be more appropriate.
All preparations are performed at 0-4° C. unless otherwise indicated. Fresh cortex (0.1-1 g) from male Wistar rats (150-200 g) is homogenized for 5-10 s. in 10 ml 20 mM Hepes pH: 7.4, with an Ultra-Turraxhomogenizer. The homogenizer is rinsed with 2×10 ml of buffer and the combined suspension centrifuged for 15 min at 40,000×g. The pellet is washed three times with buffer. In each step the pellet is homogenized as before in 3×10 ml of buffer and centrifuged for 10 min at 40,000×g.
The final pellet is homogenized in 20 mM Hepes pH: 7.4 (100 ml per g of original tissue) and used for binding assay. Aliquots of 0.5 ml is added 20 μl of test solution and 25 μl of ^3 H-Pirenzepine (1.0 nM, final conc.), mixed and incubated for 60 min at 20° C. Non-specificbinding is determined in triplicate using atropine (1 μg/ml, final conc.) as the test substance. After incubation samples are added 5 ml of ice-cold buffer and poured directly onto Whatman GF/C glass fibre filters under suction and immediately washed 2 times with 5 ml of ice-cold buffer. The amount of radioactivity on the filters are determined by conventional liquid scintillation counting. Specific binding is total binding minus non-specific binding.
Test substances are dissolved in 10 ml water, at a concentration of 0.22 mg/ml. 25-75% inhibition of specific binding must be obtained before calculation of IC50.
The test value will be given as IC50 (the concentration (nM) of the test substance which inhibits the specific binding of ^3 H-PRZ by 50%) .
as §1, §2

[3] = molecular target: muscarinic receptor in the CNS; conditions: read-out: affinity of site labelled by ^3 H-Oxo, cited from earlier work
M1-sites = conditions: cited from earlier work
M2-sites = conditions: cited from earlier work
[4] = ^3 H-Pirenzepine 1.0 nM, rat cortex, 60 min at 20° C, pH 7.4, read-out: ^3 H-PRZ IC50

Row | Compound | IC50 [1] | IC50 [2, 4] | other results
1 | CCCSc1nsnc1C12CN3CC1C2C3 [Compound 2, 1-(3-Propylthio-1,2,5-thiadiazol-4-yl)-4-azatricyclo[2.2.1.0^2,6]heptane, oxalate] | 4.3 nM | – | IC50 [2]: 100 nM
2 | C(#Cc1cccnc1)COc1nsnc1C12CN3CC1C2C3 [Compound 11, 1-(3-[3-(3-Pyridyl)-2-propyn-1-yloxy]-1,2,5-thiadiazol-4-yl)-4-azatricyclo[2.2.1.0^2,6]heptane, oxalate] | 6 nM | 400 nM | –
3 | C[N+](C)(C)CC#CCN1CCCC1=O [^3 H-Oxo, ^3 H-Oxotremorine-M] | – | – | Kd ([3]; first (high affinity) site): 1.8 nM; Kd ([3]; second (medium affinity) site): 20 nM; Kd ([3]; third site, not determined under the present conditions): 3000 nM
4 | CN1CCN(CC(=O)N2c3ccccc3C(=O)Nc3cccnc32)CC1 [pirenzepine] | – | – | selectivity for M1-sites (M1-sites): selective for M1 -sites; interaction with M2-sites (M2-sites): also interact with M2 -sites
5 | C(#Cc1ccsc1)COc1nsnc1C12CN3CC1C2C3 [Compound 8, 1-(3-[3-(3-Thienyl)-2-propyn-1-yloxy]-1,2,5-thiadiazol-4-yl)-4-azatricyclo[2.2.1.0^2,6]heptane, oxalate] | 8.7 nM | 180 nM | –
6 | COc1cccc(C#CCOc2nsnc2C23CN4CC2C3C4)c1 [Compound 10, 1-(3-[3-(3-Methoxyphenyl)-2-propyn-1-yloxy]-1,2,5-thiadiazol-4-yl)-4-azatricyclo[2.2.1.0^2,6]heptane, hydrochloride] | 25 nM | 326 nM | –

Continued, in another order:

Row | IC50 [1] | IC50 [2, 4] | Compound | other results
7 | 26 nM | 183 nM | C(#Cc1ccccc1)COc1nsnc1C12CN3CC1C2C3 [Compound 7, 1-[3-(3-Phenyl-2-propynyl-1-oxy)-1,2,5-thiadiazol-4-yl]-4-azatricyclo[2.2.1.0^2,6]heptane, oxalate] | –
8 | 17 nM | 93 nM | Fc1ccc(C#CCOc2nsnc2C23CN4CC2C3C4)cc1 [Compound 6, 1-(3-[3-(4-Fluorophenyl)-2-propynyl-1-oxy]-1,2,5-thiadiazol-4-yl)-4-azatricyclo[2.2.1.0^2,6]heptane, oxalate] | –
9 | 14 nM | 245 nM | FC(F)(F)CCSc1nsnc1C12CN3CC1C2C3 [Compound 3, 1-(3,3,3-Trifluoropropylthio-1,2,5-thiadiazol-4-yl)-4-azatricyclo[2.2.1.0^2,6]heptane, oxalate] | –
10 | 15 nM | 284 nM | C(#Cc1cccs1)COc1nsnc1C12CN3CC1C2C3 [Compound 9, 1-(3-[3-(2-Thienyl)-2-propyn-1-yloxy]-1,2,5-thiadiazol-4-yl)-4-azatricyclo[2.2.1.0^2,6]heptane, oxalate] | –
11 | 41 nM | 500 nM | N#Cc1ccc(CSc2nsnc2C23CN4CC2C3C4)cc1 [Compound 4, 1-[3-(4-Cyanobenzylthio)-1,2,5-thiadiazol-4-yl]-4-azatricyclo[2.2.1.0^2,6]heptane, oxalate] | –
